Data on seven compounds can be found in patent US12433855B2, “Method of inhibiting gram-negative bacterial quorum signalling molecules using the macrocycle pillar[5]arene” (AALTO UNIVERSITY FOUNDATION SR, priority 2018, dated 2025).

Entries after “also recorded” stand apart in the source; their conditions may differ.

Data set [1] in a line: Binding of HSLs having carbon chains of different lengths.
Data set [2] deals with Pseudomonas aeruginosa. Description: Pyocyanin assay. The class given is cell-based. To be noted: for production of pyocyanin: 24 hours of growth, OD695. From the text:
In testing the functionality of P[5]a as an actual quorum sensing inhibitor a pathogenic Gram-negative bacterium, Pserudomonas aeruginosa, which contains the LasI synthase that produces the 3-oxo-C12 HSL, was used.
P. aeruginosa utilizes multiple quorum sensing systems (Las, Rhl and Pqs). The Las system is at the top of a cascade that leads to the activation of the other quorum sensing systems, and is directly responsible for the production of the green toxin pyocyanin. Pyocyanin is a toxin produced by Pseudomonas aeruginosa, and the production is directly activated by the 3-oxo-C12 HSL. Pyocyanin is responsible for the death of cells in the lung during cystic fibrosis. Thus, the production of this toxin is related directly to the C12 Las AHL signal in a quorum-based response.
Bacterial cells were cultured for 24 hours in Luria Broth (LB) medium with […] added. Then, the culture fluid was separated from the cells and measured at OD695 (this measures the amount of green color).
In a pyocyanin assay, the effect of varying concentrations of a P[5]a (4,9,14,19,24,26,28,30,32,34-Deca[2-(trimethylaminio)ethoxy]hexacyclo[21.2.2.2^3,6.2^8,11.2^13,16.2^18,21]pentatriaconta-1(25),3,5,8,10,13,15,18,20,23,26,28,30,32,34-pentadecaene⋅10bromide, CAS No. 1351445-28-7) on the production of pyocyanin after 24 hours of growth was studied and the results are shown in FIG. 12.

For data set [3], the system named is A549 cells. Description: Viability of A549 cells, trypan blue staining. The class given is cell-based, human. The following applies: different concentrations of P[5]a, with vs without. On the procedure: (§1) To assess the possible toxicity of P[5]a on the lung cells, two independent viability tests were performed. First, the viability of A549 cells grown in the presence of different concentrations of P[5]a was determined using trypan blue staining. […] Subsequently, the CellTox Green Cytotoxicity Assay (Promega) was carried out for A549 cells grown with and without P[5]a, in the presence or absence of PAO1 P. aeruginosa strain. […] This was not observed for cells grown with the addition of P[5]a in the growth medium.

The test system of data set [4] is A549 cells infected with P. aeruginosa. Description: Gene expression (total RNA) of A549 cells infected with P. aeruginosa. It is filed as cell-based, human. The method, then:
In order to further study the influence of P[5]a on the eukaryotic cells, total RNA was isolated from A549 cells infected with P. aeruginosa in the presence or absence of 100 nM or 2.5 mM P[5]a. The expression of 46 genes were affected strongly enough to meet our stringent criteria and be considered as differentially expressed during the infection with PAO1.

Data set [5] in a line: Stability and dissolution in water. The class given is physicochemical.
Data set [6] deals with A549 cells. Description: CellTox Green Cytotoxicity Assay. It is filed as cell-based, human. The method, then: as §1

Consider `O=S(=O)(O)c1cc2c(O)c(c1)Cc1cc(S(=O)(=O)O)cc(c1O)Cc1cc(S(=O)(=O)O)cc(c1O)Cc1cc(S(=O)(=O)O)cc(c1O)C2` [4-sulfocalix[4]arene, 25,26,27,28-Tetrahydroxycalix[4]arene-5,11,17,23-tetrasulfonic acid], for which the “binding to N-acyl-homoserine lactones (AHLs)” value (from here on “binding … (AHLs)”) in data set [1] was “found to bind”.

As to `C1COCCOCCOCCOCCO1` [15-crown-5, 1,4,7,10,13-Pentaoxacyclopentadecane], the “binding … (AHLs)” value in data set [1] is reported as “found to bind”.

For `C[N+](C)(C)CCOc1cc2c(OCC[N+](C)(C)C)cc1Cc1cc(OCC[N+](C)(C)C)c(cc1OCC[N+](C)(C)C)Cc1cc(OCC[N+](C)(C)C)c(cc1OCC[N+](C)(C)C)Cc1cc(OCC[N+](C)(C)C)c(cc1OCC[N+](C)(C)C)Cc1cc(OCC[N+](C)(C)C)c(cc1OCC[N+](C)(C)C)C2.[Br-].[Br-].[Br-].[Br-].[Br-].[Br-].[Br-].[Br-].[Br-].[Br-]` [P[5]a, 4,9,14,19,24,26,28,30,32,34-Deca[2-(trimethylaminio)ethoxy]hexacyclo[21.2.2.2^3,6.2^8,11.2^13,16.2^18,21]pentatriaconta-1(25),3,5,8,10,13,15,18,20,23,26,28,30,32,34-pentadecaene⋅10bromide], the cellular growth entry in data set [2] (P. aeruginosa culture) was “not affected at all”. In addition, the production of pyocyanin entry in data set [2] (higher concentrations of P[5]a) is listed as “complete inhibition; also recorded: completely inhibit toxin production”. The production of pyocyanin entry in data set [2] (no or low concentrations of P[5]a) is recorded as “no significant differences”. Moreover, in data set [3], the “viability of A549 cells (trypan blue)” value is “no significant difference”. The “overexpression of differentially expressed genes during infection” value in data set [4] (100 nM or 2.5 mM P[5]a, PAO1 infection) is on record as “reduced the overexpression of many of the differentially expressed genes”. In addition, the “expression of CXCL1, CXCL8, CCL20 and ICAM1” value in data set [4] (100 nM or 2.5 mM P[5]a, PAO1 infection, dose-dependent) is given as “significantly reduced”. For the same compound, the “expression of adrenomodullin (ADM) and colony stimulating factor 2 (CSF2)” value in data set [4] (P[5]a added to infected A549 culture) is given as “further overexpression”. Also, in data set [1], the “binding … (AHLs)” value is reported as “found to bind” and the “selectivity of AHL binding by chain length” value is listed as “selectively bind long-chained N-acyl-homoserine lactones”. Moreover, in data set [5], the dissolution in water result is “easily dissolved” and the stability result is given as “very good stability”. Besides, the “increase in fluorescence (indicator of cell death)” value in data set [6] (A549 cells grown with P[5]a, absence of PAO1) is “not observed”. Besides, the “cell death during infection with PAO1 strain” value in data set [6] (A549 cells infected with PAO1 P. aeruginosa, P[5]a in growth medium) is recorded as “reduction in cell death in a dose dependent manner”.

For the compound `OC[C@H]1O[C@@H]2O[C@H]3[C@H](O)[C@@H](O)[C@@H](O[C@H]4[C@H](O)[C@@H](O)[C@@H](O[C@H]5[C@H](O)[C@@H](O)[C@@H](O[C@H]6[C@H](O)[C@@H](O)[C@@H](O[C@H]7[C@H](O)[C@@H](O)[C@@H](O[C@H]1[C@H](O)[C@H]2O)O[C@@H]7CO)O[C@@H]6CO)O[C@@H]5CO)O[C@@H]4CO)O[C@@H]3CO` [alpha-cyclodextrin, Alpha-cyclodextrin], the “binding … (AHLs)” value in data set [1] was “found to bind”.

In the case of `O=C1N2CN3C(=O)N4CN5C(=O)N6CN7C(=O)N8CN9C(=O)N%10CN%11C(=O)N%12CN1C1C2N2CN%13C(=O)N(CN%14C(=O)N(CN%15C(=O)N(CN%16C(=O)N(CN%17C(=O)N(CN1C2=O)C%12C%11%17)C%10C9%16)C8C7%15)C6C5%14)C4C3%13` (stereo not shown) [cucurbit[6]uril, Cucurbit[6]uril hydrate], the “binding … (AHLs)” value in data set [1] is “found to bind”.

Take `OC[C@H]1O[C@@H]2O[C@H]3[C@H](O)[C@@H](O)[C@@H](O[C@H]4[C@H](O)[C@@H](O)[C@@H](O[C@H]5[C@H](O)[C@@H](O)[C@@H](O[C@H]6[C@H](O)[C@@H](O)[C@@H](O[C@H]7[C@H](O)[C@@H](O)[C@@H](O[C@H]8[C@H](O)[C@@H](O)[C@@H](O[C@H]9[C@H](O)[C@@H](O)[C@@H](O[C@H]1[C@H](O)[C@H]2O)O[C@@H]9CO)O[C@@H]8CO)O[C@@H]7CO)O[C@@H]6CO)O[C@@H]5CO)O[C@@H]4CO)O[C@@H]3CO` [gamma-cyclodextrin, Gamma-cyclodextrin]: the “binding … (AHLs)” value in data set [1] was “found to bind”.

On to Resorcin[4]arene, for which the “binding … (AHLs)” value in data set [1] was “found to bind”.
